Assay results: US20140378496A1, “OPIOID […] 3-HYDROXYA[…] TREATING PAIN” (SLX PHARMACEUTICALS, LLC, priority 2011, published 2014)

Tested on: visceral pain model in mice
Assay: Acetic acid writhing protocol (abdominal contortion test), visceral pain model in mice
Type: in vivo, male Swiss Webster mice
Conditions: 50-400 mg/kg PO; lowest dose (50 mpk) removed as apparent outlier
Description: In order to test the analgesic activity of the combination of an opioid (hydrocodone) and 3-hydroxyacetanilide, both compounds were tested separately and in combination in a visceral pain model in mice.
Experimental animals: One hundred fifty-five 4-week old, male Swiss Webster mice (stock number 024) were purchased from Charles River Laboratories (Portage, Mich.). The study animals were allowed an acclimation period of 1-2 weeks prior to dose initiation. The mice were housed 4-6 per cage and maintained in the Innovive caging system (San Diego, Calif.) upon arrival at. In accordance with the Guide for Care and Use of Laboratory Animals (Eighth Edition), mouse rooms were maintained at temperatures of 66-75 degrees Fahrenheit and relative humidity between 30% and 70%. Cages were monitored daily to ensure the Innovive system maintained 50 air changes per hour and positive pressure. The rooms were lit by artificial light for 12 hours each day (7:00 AM -7:00 PM). […]
Animals were allowed to acclimate to the testing room for a minimum of 1 hour prior to the experiment. […] The number of writhes over a 5 min duration were counted (5-10 and 15-20 min post-dose) starting 5 min after acetic acid administration. […]

SMILES: CC(=O)Nc1cccc(O)c1 [3-hydroxyacetanilide]
- shape of dose response curve (% AA vs dose): bell-shaped
